B1: enzyme: purified thermostable amidase derived from Thermococcus GU5L5, 622 amino acid residues (SEQ ID NO:2) (protein)
chain: MTGIEWNHETFSKFAYLGDPRIRGNLIAYTLTKANMKDNKYESTVVVEDLETGSRRFIENASMPRISPDGRKLAFTCFNEEKKETEIWVADIQTLSAKKVLSTKNVRSMQWNDDSRRLLVVGFKRRDDEDFVFDDDVPVWFDNMGFFDGEKTTFWVLDTEAEEIIEQFEKPRFSSGLWHGDAIVVNVPHREGSKPALFKFYDIVLWKDGEEEKLFERVSFEAVDSDGKRILLRGKKKKRFISEHDWLYLWDGELKPIYEGPLDVWEAKLTEGKVYFLTPDAGRVNLWLWDGKAERVVTGDHWIYGLDVSDGKALLLIMTATRIGELYLYDGELKQVTEYNGPIFRKLKTFEPRHFRFKSKDLEIDGWYLRPEVKEEKAPVIVFVHGGPKGMYGHRFVYEMQLMASKGYYVVFVNPRGSDGYSEDFALRVLERTGLEDFEDIMNGIEEFFKLEPQADRERVGITGISYGGFMTNWALTQSDLFKAGISENGISYWLTSYAFSDIGLWYDVEVIGPNPLENENFRKLSPLFYAQNVKAPILLIHSLEDYRCPLDQSLMFYNVLKDMGKEAYIAIFKRGAHGHSVRGSPRHRPKRYRLFIEFFERKLKKYEEGFEVEKILKGNGN

Tests used:
[1] = test system: Thermococcus GU5L5 amidase; experiment: Activity and enantioselectivity of the amidase in increasing concentrations of DMF; format: biochemical; conditions: for Initial Rate: RT, cell lysate, pH 7.5 Hepes
Protocol: The activity and enantioselectivity of the amidase in increasing concentrations of dimethyl formamide (DMF) was tested as follows: to each well of a microtiter plate was added 30 μL of 1 mM CBZ-L-arg-AMC or CBZ-D-arg-AMC in DMF, 30 μL of cell lysate containing the amidase activity, and 240 μL of a variable mixture of DMF:pH 7.5, 50 mM Hepes buffer. The reactiosn were incubated at RT for 1 hour and the fluorescence measured at 1 minute intervals.

[2] = test system: Thermococcus GU5L5 amidase; experiment: Substrate specificity of the amidase (fluorogenic substrates); format: biochemical; conditions: substrate 100 μM, 1 hour at 70° C.; ratio between substrates
Protocol: Fifty μL of the ‘600 μM stock solution’ was added to each of the wells of a white condensed plate using the Biomek to yield a final concentration of substrate of ˜100 μM. The fluorescence values were recorded (excitation=400 nm, emission=505 nm) on a plate reading fluorometer immediately after addition of the substrate. The plate was incubated at 70° C. for 60 min. and the fluorescence values were recorded again. The initial and final fluorescence values were subtracted to determine if an active clone was present by an increase in fluorescence over the majority of the other wells.
The excitation and emission wavelengths for the 7-amido-4-methylcoumarins were 380 and 460 nm respectively, and 326 and 450 for the methylumbelliferone.

[3] = Organic solvent sensitivity: activity of the amidase in increasing concentrations of DMSO; format: biochemical, Thermococcus GU5L5
Protocol: The activity of the amidase in increasing concentrations of dimethyl sulfoxide (DMSO) was tested as follows: to each well of a microtiter plate was added 10 μL of 3 mM CBZ-L-phe-AMC in DMSO, 25 μL of cell lysate containing the amidase activity, and 250 μL of a variable mixture of DMSO:pH 7.5, 50 mM Hepes buffer. The reactions were heated for 1 hour at 70° C. and the fluorescence measured. […] The filled and open boxes represent individual assays.

[4] = Temperature tolerance of the enzyme; set-up: species or system Thermococcus GU5L5

| Molecule | Initial Rate ([1]; DMF 0.4%) [Fl.U./min] | Initial Rate ([1]; DMF 10%) [Fl.U./min] | Initial Rate ([1]; DMF 20%) [Fl.U./min] | Initial Rate ([1]; DMF 30%) [Fl.U./min] | Initial Rate ([1]; DMF 40%) [Fl.U./min] | Initial Rate ([1]; DMF 50%) [Fl.U./min] | Initial Rate ([1]; DMF 60%) [Fl.U./min] | Initial Rate ([1]; DMF 75%) [Fl.U./min] | Initial Rate ([1]; DMF 90%) [Fl.U./min] | relative activity of the amidase [2] | concentration of organic solvent tolerated [3] [% DMSO] | selectivity for the L enantiomer of the derivatized amino acid substrate ([1]; CBZ-L-arg-AMC versus CBZ-D-arg-AMC) | temperature tolerated [4] |
| --- | --- | --- | --- | --- | --- | --- | --- | --- | --- | --- | --- | --- | --- |
| Cc1cc(=O)oc2cc(NC(=O)[C@@H](CCCNC(=N)N)NC(=O)OCc3ccccc3)ccc12 [CBZ-D-arg-AMC, Nα-carbonylbenzyloxy-D-arginine-7-amido-4-methylcoumarin] | 0.3 | 10.1 | 4.6 | 1.8 | 0.9 | 1.2 | 1.4 | 0.1 | 0.1 |  |  |  |  |
| CSCC[C@H](NC(=O)OCc1ccccc1)C(=O)Nc1ccc2c(C)cc(=O)oc2c1 [CBZ-L-met-AMC, Nα-carbonylbenzyloxy-L-methionine-7-amido-4-methylcoumarin] |  |  |  |  |  |  |  |  |  | 1 |  |  |  |
| Cc1cc(=O)oc2cc(NC(=O)[C@H](CCCNC(=N)N)NC(=O)OCc3ccccc3)ccc12 [CBZ-L-arg-AMC, Nα-carbonylbenzyloxy-L-arginine-7-amido-4-methylcoumarin] | 654 | 2548 | 1451 | 541 | 345 | 303 | 190 | 81 | 11 | 3 |  |  |  |
| Cc1cc(=O)oc2cc(NC(=O)[C@H](Cc3ccccc3)NC(=O)OCc3ccccc3)ccc12 [CBZ-L-phe-AMC, Nα-carbonylbenzyloxy-L-phenylalanine-7-amido4-methylcoumarin] |  |  |  |  |  |  |  |  |  | 3 |  |  |  |
| B1 |  |  |  |  |  |  |  |  |  |  | > 40 | excellent selectivity for the L | at least 70 °C |
